In one data set the test system is B16F10 tumor cells. The data set is described as follows: B16F10 melanoma engrafted C57BL/6 mice, survival. It counts as in vivo. How it is done: The anti-tumor effects of anti-CTLA-4 antibody treatment combined with 10 nM […] agonist (AGN204647 (IRX4647)) are examined in C57BL/6 mice engrafted with B16F10 tumor cells.
The next data set has as its system CD4+ T cells. Briefly: in vivo T cell differentiation in mice (FoxP3 expression in CD4+ T cells of blood and spleen). The arrangement: species or system mouse. The conditions noted are these: in vivo assay. How it is done: To expand on the finding above, the in vivo effects of a RARα selective agonist on T cell differentiation was evaluated in a mouse model. Mice were treated with 100 μg of compound 5183 (a RARα agonist) or an equivalent volume of DMSO (vehicle control) every other day for 10 days. Lympocytes from the blood and spleen were then isolated and FoxP3 expression in CD4^+ T cells was assessed.

In a further data set the test system is Th17 cell. Briefly: in vitro Th17 cell differentiation from naive T cells. It counts as cell-based, mouse. The conditions noted are these: in vitro assay. How it is done: (§1) To determine whether a RARα selective agonist could affect T cell differentiation, T cells were incubated with a RARα selective agonist to determine its effect on Foxp3 expression. Naive CD4^+ […] cells were purified from a Foxp3-GFP mouse using flow cytometry by sorting and isolating based upon a GFP^+ phenotype. These cells were activated polyclonally with αCD3 in vitro in the presence of IL-2 and TGF-β. These cells were then cultured in media with various concentrations of compound 5183 (a RARα selective agonist) and the expression of FoxP3-GFP was analyzed by flow cytometry. The RARα selective agonist compound 5183 enhanced differentiation of immunosuppressive Treg cells and inhibited differentiation of inflammatory TH17 cells from naëve T cells in vitro (Table 2).

The subject of a further data set is Treg cell. The data set is described as follows: in vitro Treg cell differentiation from naive CD4+ T cells (FoxP3-GFP, flow cytometry). Type of data set: cell-based, mouse. The conditions noted are these: in vitro assay. The protocol: as §1
The next data set has as its system Th 17 cells. Briefly: formation of Th17 cells (FIG. 3). It counts as cell-based.
A further data set has as its system FoxP3+ Treg cells. The data set is described as follows: formation of FoxP3+ Treg cells (FIG. 3). Type of data set: cell-based.
The mark [1] stands for this setting: combination with anti-CTLA-4 antibody.

On to `CC1(C)CCC(C)(C)c2cc(C(/C=C/c3cccc(C(=O)O)c3)=N/O)ccc21` [AGN204647], for which the “survival rate at 50 days” value in the data set with B16F10 tumor cells (agent alone, vehicles only 0%) is 30%. In addition, the “survival at 50 days” value in the data set with B16F10 tumor cells (combination of anti-CTLA-4 antibody and 10 nM RARγ agonist AGN204647) is given as 100%. Further, in the data set on B16F10 tumor cells (setting [1]), the “resistance of surviving mice to tumor re-challenge” value is recorded as “resistant to re-challenge with twice the dose of live tumor cells” and the toxicity result is “without signs of acute or delayed toxicity”.
As for `CCOc1c(Br)cc(C(=O)Nc2ccc(C(=O)O)cc2)cc1C(=O)c1ccc(C)cc1` [AGN196996], the Th17 cell numbers entry in the data set with CD4+ T cells and with Th17 cell was “increases Th17 cell numbers” in each case. Further, the Treg cell numbers entry in the data set with CD4+ T cells and with Treg cell was “decreases Treg cell numbers” each time.
Consider `CC(/C=C/[C@@H]1C[C@]1(C)c1ccc2c(c1)C(C)(C)CCC2(C)C)=C\C(=O)O` [IRX4204], for which the “formation of Th 17 cells” value in the data set on Th 17 cells is reported as “inhibits the formation of Th 17 cells”. For the same compound, in the data set on FoxP3+ Treg cells, the “formation of FoxP3+ Treg cells” value is “promotes the formation of FoxP3+ Treg cells”.

(Values after patent US11648223B2, “Receptor subtype and function selective retinoid and rexinoid compounds in combination with immune modulators for cancer immunotherapy” (Io Therapeutics, Inc., priority 2016, dated 2023).)
